Assays:
[1] = Photochromic response on optical bench of naphthopyrans imbibed into polymer test samples; type: physicochemical; conditions: homopolymer of diethylene glycol bis(allyl carbonate); for Δ OD at SATURATION: 150 watt Xenon lamp, about one sun, twenty minutes exposure; for Bleach Rate T1/2: values in sec.
Description: Naphthopyran compounds prepared in the above-described Examples were imbibed by thermal transfer into test samples of a homopolymer of diethylene glycol bis(allyl carbonate) by the following procedure. Each naphthopyran was dissolved into toluene solvent to form a 4% solution of the compound. A piece of No. 4 Whatman filter paper was saturated with the naphthopyran solution and allowed to air dry. The dried filter paper was placed on one side of the polymer test sample, which measured 1/8 inch (0.3 centimeter)×2 inch (5.1 centimeters)×2 inch (5.1 centimeters). A piece of untreated filter paper was placed on the other side of the polymer test sample and the resulting sandwich placed between two plates of flat aluminum metal plates. The entire assembly was then placed in a 155° C. oven for a time sufficient to thermally transfer the naphthopyran into the polymer test sample.
The imbibed test samples were removed from the oven, washed with acetone, and tested for photochromic response rates on an optical bench. The samples were illuminated by a 150 watt Xenon lamp fitted with a copper sulfate bath and neutral density filter at an intensity of about one sun. The optical density at saturation was determined at twenty minutes exposure.

[2] = Photochromic behaviour (coloring, bleaching) stated in words; type: physicochemical; conditions: for coloring on exposure to ultraviolet light: near ultraviolet; for bleaching / rate of fade in words: room temperature and above, or ambient temperature

Row | SMILES | Δ OD at SATURATION [1] | Bleach Rate T1/2 [1] [s] | coloring on exposure to ultraviolet light [2] | bleaching / rate of fade in words [2]
1 | COc1ccc(C2(c3ccccc3)C=Cc3c(ccc4ccccc34)O2)cc1 (centres unmarked) [Comparative Example 2, 3-phenyl-3(4-methoxyphenyl)-3H-naphtho[2,1-b]pyran] | 0.25 | 35 | – | –
2 | FC(F)(F)c1ccc(C2(c3ccccc3)C=Cc3ccc4ccccc4c3O2)cc1 (centres unmarked) [Comparative Example 4, 3-phenyl-3(4-trifluoromethylphenyl)-2H-naphtho[1,2-b]pyran] | 1.63 | – | – | –
3 | COc1ccc(C2(c3ccc(OC)cc3C)C=Cc3c(ccc4ccccc34)O2)cc1 (centres unmarked) [Example 3, 3(2-methyl-4-methoxyphenyl)-3-(4methoxyphenyl)-3H-naphtho-[2,1-b]pyran] | 1.35 | 510 | – | –
4 | COc1ccc(C2(c3ccccc3C)C=Cc3c(ccc4ccccc34)O2)cc1 (centres unmarked) [Example 4, 3(2-methylphenyl)-3-(4-methoxyphenyl)-3H-naphtho[2,1-b]pyran] | 2.40 | 600 | – | –
5 | COc1ccc(C2(c3ccccc3)C=Cc3c(ccc4ccccc34)O2)c(OC)c1 (centres unmarked) [Example 5, 3-phenyl-3-(2,4-dimethoxyphenyl)-3H-naphtho[2,1-b]pyran] | 1.42 | 510 | – | –
6 | COc1ccc(C2(c3c(F)cccc3F)C=Cc3c(ccc4ccccc34)O2)cc1 (centres unmarked) [Example 6, 3(2,6-difluorophenyl)-3(4-methoxyphenyl)-3H-naphtho[2,1-b]pyran] | 2.23 | – | – | –
7 | C1=CC(c2ccccc2)(c2ccccc2)Oc2c1ccc1ccccc21 [a., 2,2diphenyl-2H naphthol[1,2b]pyran] | 1.37 | – | colors on exposure to near ultraviolet light at room temperature | does not bleach in a reasonable period of time
8 | C1=CC(c2ccccc2)(c2ccccc2)Oc2ccc3ccccc3c21 [compound 1, 3,3-diphenyl-3H-naphtho[2,1-b]pyran] | 0.36 | 45 | change color on exposure to the near ultraviolet | bleaches too rapidly for use in an ophthalmic lens
9 | COc1ccc(C2(c3ccc(C)cc3)C=Cc3c(ccc4ccccc34)O2)cc1 (centres unmarked) [compound 3, 3(4-methylphenyl)-3-(4-methoxyphenyl)-3H-naphtho[2,1-b]pyran] | 0.21 | 40 | – | –
10 | FC(F)(F)c1cccc(C2(c3cccc(C(F)(F)F)c3)C=Cc3ccc4ccccc4c3O2)c1 [compound 5, 3,3-di(3-trifluoromethyl)phenyl-2H-naphtho [1,2-b]pyran] | 1.07 | – | – | –
